{"source": "patent US6368831B1", "about": "“Treatment of hyperproliferative disorders” (Childrens Hospital Los Angeles, priority 1998, dated 2002)", "type_in_all_cases": "cell-based, human", "key": {"[1]": {"test_system": "SMS-LHN neuroblastoma cell line", "assay": "Ceramide assay, SMS-LHN", "details": "SMS-LHN (drug sensitive); 10 μM fenretinide; 20% O2", "method": "(§1) The ceramide assay is carried out as follows. 500,000 neuroblastoma cells/well are replicate plated in six-well tissue culture plates and allowed to attach overnight. Tritiated (3H)-palmitic acid (a lipid precursor) is added to 1 microcure/cc and fenretinide added to a final concentration of 10 uM. Control cells receive tritiated label but no drug. At the indicated time, cells are harvested from triplicate wells, washed, and lipids extracted with methanol, acetic acid, water, and chloroform. The organic layer (containing the tritium label incorporated into lipids) is isolated and dried down by a nitrogen stream. The lipid sample is dissolved in chloroform: methanol and 10% of each sample assayed to estimate the total tritium in the lipid sample. The lipids in sample fractions, together with unlabeled ceramide standards, are then separated by thin layer chromatography and the plates developed by iodine vapor. The region of the plate corresponding to the ceramide standard is scraped and the tritium of the co-migrating sample ceramide is measured. Total sample ceramide is then expressed as percent tritium label in ceramide versus tritium in total lipid. […]"}, "[2]": {"test_system": "CHLA-90 neuroblastoma cell line", "assay": "Ceramide assay, CHLA-90", "details": "CHLA-90 (drug resistant); 10 μM fenretinide; 20% O2", "method": "as §1"}, "[3]": {"test_system": "MCF7/GCS cells", "assay": "DIMSCAN cytotoxicity assay, MCF7/GCS tet OFF vs tet ON", "details": "96 hours, P<0.005 at >6 μM HPR, safingol 0-4 μM", "source_text": "We have shown that HPR generates ceramide in neuroblastoma tumor cell lines in a dose- and time-depenent manner (B. Maurer et al., J. Natl. Cancer Inst. (1999)(in press)). Glucosylceramide (GC) is a nontoxic metabolite of ceramide. Ceramide is converted into glucosylceramide by the action of glucosylceramide synthase (GCS). Glucosylceramide synthase (GCS) has been transfected into human MCF7 breast cancer cells in a tetracycline-inducible expression construct in the MCF7/GCS cell line (Y. Liu et al., J. Biol. Chem. 274:1140-46 (1999)). […] We have exposed MCF7/GCS cells to HPR, safingol and HPR+safingol in the absence, and in the presence, of doxycycline.\nMethods. MCF7/GCS cells were plated and incubated in RPMI medium with 10% fetal bovine serum and 200 microgram/ml Hygromycin B (tet OFF) for DIMSCAN cytotoxicity assays as previously described. To increase GCS expression, MCF7/GCS cells were also incubated in the above medium with 3 microgram/ml doxycycline (tet ON) for three days prior to replating them for DIMSCAN cytotoxicity assay. DIMSCAN assays with doxycycline-induced (tet ON) cells also included 3 microgram/ml doxycycline in the medium. Both “tet OFF” and “tet ON” MCF7/GCS cells were exposed to HPR, safingol and HPR+safingol (3:1 molar ratio) for 96 hours and assayed for survival fraction by DIMSCAN as previously described."}, "[4]": {"test_system": "CHLA-90 cells", "assay": "Morphological assessment of apoptosis and necrosis (Hoechst 33342 / propidium iodide), CHLA-90", "method": "Methods. To determine the manner in which 4-HPR or HPR+safingol induced cell death in neuroblastoma cells, morphological evidence of apoptosis and/or necrosis was assessed in CHLA-90 cells in the presence or absence of a specific as inhibitor of apoptosis, the neural cell-penetrant, pan-caspase enzyme inhibitor, BOC-d-fink (Enzyme Systems Products, Livermore, Calif.). […] CHLA-90 cells were plated in duplicate in whole medium in Lab Tek chamber slides (Nunc, Naperville, Ill.), allowed to attach for 24 hours, and then treated in the presence or absence of BOC-d-fink (40 μM) for one hour prior to treatment with HPR (10 μM). Control cells were treated with vehicle solvents of 0. 1% ethanol (4-HPR) and/or 0.2% DMSO (BOC-d-fink). Morphological features of apoptosis (DNA condensation and/or apoptotic bodies) were visualized in undetached cells at +24 or +48 hours using blue nuclear fluorescence induced by the supravital DNA stain Hoechst 33342 (10 μg/ml for 30 mins at 37° C.), while necrotic cells and advanced apoptotic cells were recognized by red fluorescent staining with propidium iodide (0.5 μM/ml). Red fluorescently-staining cells with condensed nuclear remnants were scored as apoptotic cells. […] Mutiple random fields of cells (of ˜100-500 cells each) were counted and photographed for viable cells, apoptotic cells, and necrotic cells. […]"}}, "data": [{"smiles": "CC1=C(/C=C/C(C)=C/C=C/C(C)=C/C(=O)Nc2ccc(O)cc2)C(C)(C)CCC1", "note": "[HPR, all-trans-N-(4-hydroxyphenyl)retinamide]", "values": [{"measurement": "ceramide generation", "setting": "[1]", "value": "generate ceramide"}, {"measurement": "ceramide generation", "setting": "[2]", "value": "generate ceramide"}, {"measurement": "change of cytotoxicity in tet ON (doxycycline, GCS induced) compared to tet OFF cells", "setting": "[3]", "value": "significantly decreased"}, {"measurement": "morphological nuclear changes indicative of apoptosis", "setting": "[4]; HPR 10 μM alone, relative to controls (P=0.006)", "value": "induced significant apoptosis"}, {"measurement": "morphological evidence of necrosis", "setting": "[4]; HPR 10 μM, relative to controls (P=0.002)", "value": "significant morphological evidence of necrosis"}]}]}
